Data published in article PMC5743070 (The Journal of Biological Chemistry, 2017).
pKd: −log10 of the molar value. Like-named read-outs stand apart in the source and are kept apart here.

Columns and labels:
TTD (UHRF1_121–286) [1] = target: T1, TTD (UHRF1_121–286) (Homo sapiens, UniProt Q96T88); assay: DSF thermal shift of TTD; type: binding; conditions: 0.1 mg/ml TTD, absence and presence of 3 mM BPC, 0.1 M HEPES pH 7.5, 0.15 M NaCl, 5× Sypro Orange, 4 °C/min
T1 construct: UHRF1_121–286 corresponding to the TTD; made in house
T1 sequence (Q96T88 121-286): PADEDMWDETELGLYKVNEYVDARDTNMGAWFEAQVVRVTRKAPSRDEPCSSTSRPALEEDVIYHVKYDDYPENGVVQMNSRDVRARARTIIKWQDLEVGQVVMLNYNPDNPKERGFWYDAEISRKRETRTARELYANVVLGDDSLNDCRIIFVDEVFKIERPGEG
Procedure: DSF measurements were performed with a Light Cycler 480 II instrument from Roche Applied Science. TTD (UHRF1_121–286) was buffered at 0.1 mg/ml in 0.1 M HEPES (pH 7.5), 0.15 M NaCl, and 5× Sypro Orange. Sypro Orange was purchased from Invitrogen as a 5,000× stock solution, and it was diluted 1:1,000 to yield a 5× working concentration. Experiments were run in the absence and presence of 3 mM BPC. DSF was carried out by increasing the temperature from 20 to 95 °C at a heating rate of 4 °C/min, and data points were collected at 1 °C intervals. The temperature scan curves were fitted to a Boltzmann sigmoid function, and the Tm values were obtained from the midpoint of the transition as described previously ([47]).
(§1) Figure S5 (related to Fig. 4)
(§2) Binding of BPC in the groove of TTD. […]
(§3) labeled (at the N-terminus) H3K9me3(1-25) peptide, (B) ITC, and (C) DSF. (D) KD estimates of BPC bind-ing based on I211 and Y239 amide peak movement (where Δ(ppm) = ((ΔδHN)2 + (ΔδN/6.5)2 )1⁄2) in (1H-15N) HSQC spectra when the TTD is titrated with BPC. […]
(§4) as a function of TTD sequence resulting from BPC (blue) or PBR peptide (red) binding. (F) HSQC overlays […]
(§5) ment:protein), and PBR peptide ratios (bottom spectrum - from 1:1 to 5:1 peptide:protein). The protein con-centration was ~250 µM for all NMR experiments, and the DMSO concentration was 5% for NMR titrations […]

TTD (UHRF1_121–286) [2] = target: T1, TTD (UHRF1_121–286); assay: (1H-15N) HSQC NMR titration of TTD; type: binding; conditions: for pKd: HSQC titration, ~250 μM TTD, 5% DMSO, pH 7.5, 25 °C
From the text: We designed a fragment library containing 2,040 compounds that was initially screened against isolated TTD (UHRF1_121–286) using a fluorescence polarization (FP) assay that tracked the displacement of a N-terminally tagged H3K9me3 peptide (H3K9me3(1–25)). From this screen, eight putative TTD-binding hits were identified. […] Because of limited commercial availability of the tricyclic amine, we focused only on BPC. The binding of this compound occurs close to (or within) the Arg^296-binding pocket; we observe significant perturbation of Trp^238 and Phe^278 resonances that form part of the pocket, and in Gly^236, which is directly adjacent to it (Fig. 4A and supplemental Fig. S5). We also see chemical shift changes in non-surface exposed residues that are close to or are in contact with the groove.
(§6) NMR samples were buffered in 20 mM sodium phosphate (pH 7.5), 150 mM NaCl, 5 mM DTT, 5 mM β-mercaptoethanol, 2 mM TCEP, and 10 μM ZnSO4. The protein concentration was between 200 and 300 μM for all samples. The data were collected at 25 °C on Bruker spectrometers equipped with cryoprobes and operating at 500, 600, or 800 MHz. The assignment of backbone TTD–PHD resonances was accomplished using the ABACUS method ([29]) for which standard backbone and ^15N-edited NOESY spectra were collected using ^15N/^13C/^2H- or ^15N/^13C-labeled protein. All 3D experiments were acquired using non-uniform sampling and processed using the software MDDGUI ([30]) or qMDD ([31]). ^15N-Labeled TTD–PHD was used to acquire ^15N T1 and T2 relaxation and ^1H-^15N heteronuclear NOE measurements ([32]) collected using standard Bruker pulse schemes in an interleaved manner. For T1 measurements, the variable delay was set to 0.1, 0.4, 0.8, 1.5, 2.0, 2.5, 3.5, and 5 s. For T2 measurements, the variable delay was set to 16, 32, 48, 64, 80, 96, 128, and 144 ms. The D1 was 3 s for all experiments. Reported values were the average from two measurements. All spectra were processed using NMRPipe ([33]) and analyzed with SPARKY ([34]).
as §1, §2, §3, §4, §5
(§7) (1 picture or pasted object on this page, not shown here)

TTD–PHD (UHRF1_126–366) [3] = target: T2, TTD–PHD (UHRF1_126–366) (Homo sapiens, UniProt Q96T88); assay: ITC of H3 peptide binding to TTD–PHD
T2 construct: His tag (TEV-cleavable) (N); made in house
T2 sequence (Q96T88 126-366): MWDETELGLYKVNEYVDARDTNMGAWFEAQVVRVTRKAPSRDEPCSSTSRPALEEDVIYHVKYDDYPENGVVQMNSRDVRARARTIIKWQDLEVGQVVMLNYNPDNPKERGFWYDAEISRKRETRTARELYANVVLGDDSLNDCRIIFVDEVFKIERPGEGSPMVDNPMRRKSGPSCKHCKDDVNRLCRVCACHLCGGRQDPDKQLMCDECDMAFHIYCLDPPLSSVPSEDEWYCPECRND
Procedure: A preliminary peptide injection of 0.06 μl was followed by subsequent 2-μl injections into the sample cell containing 167 μl of 50 μM TTD–PHD. Where indicated, 1.5 mM BPC or 1.5 mM PBR peptide was included in the injection syringe and sample cell. The reported KD and n values are based on the average from two measurements. For ITC measurements of TTD (UHRF1_121–286) interaction with BPC, the protein was buffered in 20 mM Tris (pH 7.4), 50 mM NaCl, and 5% DMSO. BPC was brought to a concentration of 2.5 mM and injected into the sample cell containing 40 μM protein. The data were acquired on a Nano ITC from TA Instruments at 25 °C and fitted with an independent-binding site model using NanoAnalyze software (v3.7.0).
ITC curves showing TTD-PHD binding to methylated (red) and unmethylated (black) H3 peptide.
as §7

TTD–PHD (UHRF1_126–366) [4] = target: T2, TTD–PHD (UHRF1_126–366); assay: (1H-15N) TROSY NMR titration of TTD–PHD; type: binding
Procedure: Exchange broadening is clearly observed for Arg^282, Gly^284, Asp^291, Asn^292, Met^294, and Ser^301 amide resonances at 1:3 protein/BPC ratios, with perturbations also seen with Gly^286 and Gly^299 (Fig. 4 and supplemental Fig. S6).
as §6

Structure (SMILES): N=C(N)N1CCC(Cc2ccccc2)CC1 [BPC, 4-benzylpiperidine-1-carboximidamide]
- ΔTm (thermal shift) (TTD (UHRF1_121–286) [1]): 2.9 °C
- binding site on TTD by amide peak movement (TTD (UHRF1_121–286) [2]; (1H-15N) HSQC spectra of TTD): occurs in the groove
- pKd (TTD (UHRF1_121–286) [2]; residue I211, read-out: KD estimate from I211 amide peak movement): 4.11
- pKd (TTD (UHRF1_121–286) [2]; residue Y239, read-out: KD estimate from Y239 amide peak movement): 4.12
- effect on TTD–PHD binding affinity for the histone peptide (TTD–PHD (UHRF1_126–366) [3]; 1.5 mM BPC (4% DMSO) or 1.5 mM PBR peptide, H3K9me3(1–15)): reduces the TTD–PHD binding affinity for the histone peptide
- increase of KD for H3K9me3 (effect of added ligand) (TTD–PHD (UHRF1_126–366) [3]; 1.5 mM BPC or PBR peptide in syringe and cell, vs apo TTD–PHD): ~5 fold
- effect on linker resonances of TTD–PHD (TTD–PHD (UHRF1_126–366) [4]; (1H-15N) TROSY, ~250 μM protein/750 μM ligand): significant conformational broadening and/or movement of amide peaks
- effect on TTD–PHD conformation (TTD–PHD (UHRF1_126–366) [4]; Fig. 4): promote open TTD–PHD conformations
